# From patent publication US20110152210A1, “POLYPHENOL COMPOUNDS FOR INHIBITING PROTEASOME AND USES THEREOF” (THE ROYAL INSTITUTION FOR THE ADVANCEMENT OF …, priority 2009, published 2011)
# “Also recorded” adds a separate entry of the source.
# Experiments:
# [1] = molecular target: T1, Purified rabbit 20S proteasome (Oryctolagus cuniculus, UniProt G1T4Q9); assay: Inhibition of chymotrypsin-like activity of purified 20S proteasome; type: biochemical; details: for inhibition of proteasomal chymotryptic activity (in words): 2 h; for IC50: Suc-LLVY-AMC, 2 h at 37° C., read-out: IC50, inhibition of proteasomal chymotrypsin-like activity
# T1 sequence (G1T4Q9 60-263): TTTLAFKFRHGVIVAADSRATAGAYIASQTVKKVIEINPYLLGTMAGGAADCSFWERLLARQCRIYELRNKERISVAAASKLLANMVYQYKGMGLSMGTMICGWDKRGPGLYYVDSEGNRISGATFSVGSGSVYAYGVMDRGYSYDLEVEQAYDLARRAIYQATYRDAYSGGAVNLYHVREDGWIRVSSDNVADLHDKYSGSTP
# Text: EGCG was used as a comparative standard. Materials. Purified rabbit 20S proteasome and fluorogenic substrate Suc-LLVY-AMC for the proteasomal chymotrypsinlike (CT-like) activity were obtained from Calbiochem Inc. (San Diego, Calif.). Fetal bovine serum (FBS) was from Tissue Culture Biologicals (Tulare, Calif.). Penicillin and streptomycin were purchased from Invitrogen Co. (Carlsbad, Calif.). RPMI 1640 medium was purchased from Invitrogen Co. (Carlsbad, Calif.). […] Inhibition of purified 20S proteasome activity by EGCG and its analogs.
# cancer cell lines = details: a number of cancer cell lines; cited from earlier work
# [2] = test system: human multiple myeloma ARP cells; assay: MTT assay in multiple myeloma ARP cells, alone or combined with Velcade; type: cell-based; details: 48 hrs; for effect on cell proliferation in combination with bortezomib (in words): 20 μM with varying doses of Velcade; for inhibition of cell proliferation as single agent (in words): ARP cells
# Protocol: The cells were treated with Velcade alone or with 20 μM of compounds 5, 7 and 23 or in combination with varying doses of Velcade for 48 hrs, followed by a MTT assay.
# Deep purple color indicates fully viable cells; light purple color indicates a reduced number of viable cells; and yellowish color indicates an absence of viable cells.
# MTT assay. Cells were grown in a 96-well plate. Triplicate wells of cells were treated with indicated concentrations of EGCG or EGCG analogs for 24 h. After aspiration of medium, MTT (1 mg/ml) was then added to the cell cultures, followed by incubation for 3 h at 37° C. After cells were crystallized, MTT was removed and DMSO was added to dissolve the metabolized MTT product. The absorbance was then measured on a Wallac Victor3 1420 Multi-label counter at 540 nm.
compound,measurement,setting,value
"CC(=O)Oc1cc(OC(C)=O)c2c(c1)O[C@H](c1cc(OC(C)=O)c(OC(C)=O)c(OC(C)=O)c1)[C@H](OC(=O)c1cc(OC(C)=O)c(OC(C)=O)c(OC(C)=O)c1)C2 [Compound 4, (−)Epigallocatechin gallate octa acetate, reference compound]",inhibition of proteasomal chymotryptic activity (in words),[1],"none of the resulting derivatives 4, 6, 8, 17 and 22 exhibited proteasomal inhibition"
same,growth inhibitory activity compared to EGCG (1) (in words),cancer cell lines,enhanced growth inhibitory activity
O=C(O[C@H]1Cc2ccccc2C[C@H]1OC(=O)c1cc(O)c(O)c(O)c1)c1cc(O)c(O)c(O)c1 [Compound 5],IC50,[1],19 µM
same,effect on cell proliferation in combination with bortezomib (in words),[2],interfered with; also recorded: partially block the inhibitory effect of bortezomib
O=C(O[C@H]1Cc2ccccc2C[C@H]1OC(=O)c1cc(O)cc(O)c1)c1cc(O)cc(O)c1 [Compound 7],IC50,[1],29 µM
same,effect on cell proliferation in combination with bortezomib (in words),[2],synergistic inhibitory effect
same,inhibition of cell proliferation as single agent (in words),[2],most potent cell proliferation inhibitor
CC(=O)Oc1cc(C(=O)O[C@H]2Cc3ccccc3C[C@H]2OC(C)=O)cc(OC(C)=O)c1OC(C)=O [Compound 17],inhibition of proteasomal chymotryptic activity (in words),[1],"none of the resulting derivatives 4, 6, 8, 17 and 22 exhibited proteasomal inhibition"
CC(=O)Oc1cc(OC(C)=O)cc(C(=O)O[C@H]2Cc3ccccc3C[C@H]2OC(C)=O)c1 [Compound 22],inhibition of proteasomal chymotryptic activity (in words),[1],"none of the resulting derivatives 4, 6, 8, 17 and 22 exhibited proteasomal inhibition"
"O=C(O[C@@H]1Cc2c(O)cc(O)cc2O[C@@H]1c1cc(O)c(O)c(O)c1)c1cc(O)c(O)c(O)c1 [EGCG, (−)Epigallocatechin gallate, reference compound]",inhibition of proteasomal chymotryptic activity (in words),[1],potently inhibited
"CC(C)C[C@H](NC(=O)[C@H](Cc1ccccc1)NC(=O)c1cnccn1)B(O)O [bortezomib, reference compound]",inhibition of cell proliferation as single agent (in words),[2],reduced cell proliferation in a dose-dependent manner
